Columns and labels:
[1] = molecular target: Histone deacetylase (Homo sapiens) (UniProt Q13547+O15379+Q9UBN7+Q92769+Q9UQL6+Q8WUI4+Q9BY41+Q96DB2+P56524+Q9UKV0+Q969S8); conditions: HeLa, at 1 µM
Description: Inhibition of HDAC in human HeLa cell nuclear extracts using Fluor de Lys as substrate at 1 uM by fluorescence assay

MCF7 = assay: Antiproliferative activity against human MCF7 cells after 48 hrs by sulforhodamine B assay; type: functional; conditions: MCF7, 48 h
OVCAR-5 = assay: Antiproliferative activity against human OVCAR5 cells after 48 hrs by sulforhodamine B assay; type: functional; conditions: OVCAR-5, 48 h
Histone deacetylase = assay: Inhibition of HDAC in human HeLa cell nuclear extracts using Fluor de Lys as substrate by fluorescence assay; type: protein assay
HCT-116 = assay: Antiproliferative activity against human HCT116 cells after 48 hrs by sulforhodamine B assay; type: functional; conditions: HCT-116, 48 h
MDA-MB-435 = assay: Antiproliferative activity against human MDA-MB-435 cells after 48 hrs by sulforhodamine B assay; type: functional; conditions: MDA-MB-435, 48 h
NCI-H460 = assay: Antiproliferative activity against human NCI-H460 cells after 48 hrs by sulforhodamine B assay; type: functional; conditions: NCI-H460, 48 h

inhibition [1] | GI50 (MCF7) | GI50 (OVCAR-5) | IC50 (Histone deacetylase) | GI50 (HCT-116) | GI50 (MDA-MB-435) | GI50 (NCI-H460) | SMILES
73.9% | – | – | – | – | – | – | CCCCNC(=S)Nc1cc(/C=C/C(=O)NO)ccc1SCCN(CC)CC
80.7% | – | – | – | – | – | – | CCCCNC(=O)Nc1cc(/C=C/C(=O)NO)ccc1OCCN(CC)CC
72.2% | – | – | – | – | – | – | CCCCCCNC(=S)Nc1cc(/C=C/C(=O)NO)ccc1SCCN(CC)CC
88% | 220 nM | 1120 nM | 130 nM | 350 nM | 510 nM | 480 nM | CCCCNC(=S)Nc1cc(/C=C/C(=O)NO)ccc1OCCN(CC)CC
82.9% | – | – | 210 nM | – | – | – | CCCNC(=S)Nc1cc(/C=C/C(=O)NO)ccc1OCCN(CC)CC
73.8% | – | – | – | – | – | – | CCCCCNC(=S)Nc1cc(/C=C/C(=O)NO)ccc1SCCN(CC)CC
– | 450 nM | – | – | 940 nM | 880 nM | – | O=C(CCCCCCC(=O)Nc1ccccc1)NO [VORINOSTAT]
48.7% | – | – | – | – | – | – | CCCCCCCNC(=O)Nc1cc(/C=C/C(=O)NO)ccc1SCCN(CC)CC
84.2% | 400 nM | 1800 nM | 206 nM | 560 nM | 990 nM | 940 nM | CCCCCNC(=O)Nc1cc(/C=C/C(=O)NO)ccc1SCCN(CC)CC
– | 170 nM | 610 nM | – | 240 nM | 480 nM | 220 nM | CCCCc1nc2cc(/C=C/C(=O)NO)ccc2n1CCN(CC)CC [PRACINOSTAT]
76.2% | – | – | – | – | – | – | CCCNC(=S)Nc1cc(/C=C/C(=O)NO)ccc1SCCN(CC)CC
83.6% | – | – | 410 nM | – | – | – | CCCCCCCNC(=O)Nc1cc(/C=C/C(=O)NO)ccc1OCCN(CC)CC
69.8% | – | – | – | – | – | – | CCCCCCCNC(=S)Nc1cc(/C=C/C(=O)NO)ccc1OCCN(CC)CC
62.4% | – | – | – | – | – | – | CCCCCCCNC(=S)Nc1cc(/C=C/C(=O)NO)ccc1SCCN(CC)CC
90.5% | 380 nM | 1560 nM | 216 nM | 720 nM | 1180 nM | 1080 nM | CCCCCNC(=S)Nc1cc(/C=C/C(=O)NO)ccc1OCCN(CC)CC
84.5% | 430 nM | 1750 nM | 172 nM | 590 nM | 1500 nM | 1550 nM | CCCCNC(=O)Nc1cc(/C=C/C(=O)NO)ccc1SCCN(CC)CC
87.5% | – | – | 304 nM | – | – | – | CCCCCCNC(=O)Nc1cc(/C=C/C(=O)NO)ccc1OCCN(CC)CC
79.6% | – | – | – | – | – | – | CCCCCCNC(=O)Nc1cc(/C=C/C(=O)NO)ccc1SCCN(CC)CC
88.9% | 290 nM | 1340 nM | 186 nM | 470 nM | 830 nM | 870 nM | CCCCCNC(=O)Nc1cc(/C=C/C(=O)NO)ccc1OCCN(CC)CC
87.4% | – | – | 187 nM | – | – | – | CCCCCCNC(=S)Nc1cc(/C=C/C(=O)NO)ccc1OCCN(CC)CC
82.7% | – | – | 198 nM | – | – | – | CCCNC(=O)Nc1cc(/C=C/C(=O)NO)ccc1SCCN(CC)CC
80% | – | – | 234 nM | – | – | – | CCCNC(=O)Nc1cc(/C=C/C(=O)NO)ccc1OCCN(CC)CC

Reference: ChEMBL document CHEMBL2440014, “Design, synthesis and biological evaluation of di-substituted cinnamic hydroxamic acids bearing urea/thiourea unit as potent histone deacetylase inhibitors” (Bioorg Med Chem Lett, 2013)
